Reference: patent US7250442B2, “Dihydroindol-2-one derivatives as steroid hormone nuclear receptor modulators” (Eli Lilly and Company, priority 2003, dated 2007)

molecular target: T1, human MR (Homo sapiens, UniProt P08235); assay: Mineralocorticoid Receptor Binding Assay ([3H]-aldosterone displacement); settings: full length human MR expressed in Sf9 cells, 0.5 nM [3H]-aldosterone
T1 construct: The full length human MR gene is cloned from a human kidney or human brain cDNA library; made in house; host or cells: Sf9 insect cells (baculovirus, pAcHLT transfer vector)
T1 sequence (P08235 1-984): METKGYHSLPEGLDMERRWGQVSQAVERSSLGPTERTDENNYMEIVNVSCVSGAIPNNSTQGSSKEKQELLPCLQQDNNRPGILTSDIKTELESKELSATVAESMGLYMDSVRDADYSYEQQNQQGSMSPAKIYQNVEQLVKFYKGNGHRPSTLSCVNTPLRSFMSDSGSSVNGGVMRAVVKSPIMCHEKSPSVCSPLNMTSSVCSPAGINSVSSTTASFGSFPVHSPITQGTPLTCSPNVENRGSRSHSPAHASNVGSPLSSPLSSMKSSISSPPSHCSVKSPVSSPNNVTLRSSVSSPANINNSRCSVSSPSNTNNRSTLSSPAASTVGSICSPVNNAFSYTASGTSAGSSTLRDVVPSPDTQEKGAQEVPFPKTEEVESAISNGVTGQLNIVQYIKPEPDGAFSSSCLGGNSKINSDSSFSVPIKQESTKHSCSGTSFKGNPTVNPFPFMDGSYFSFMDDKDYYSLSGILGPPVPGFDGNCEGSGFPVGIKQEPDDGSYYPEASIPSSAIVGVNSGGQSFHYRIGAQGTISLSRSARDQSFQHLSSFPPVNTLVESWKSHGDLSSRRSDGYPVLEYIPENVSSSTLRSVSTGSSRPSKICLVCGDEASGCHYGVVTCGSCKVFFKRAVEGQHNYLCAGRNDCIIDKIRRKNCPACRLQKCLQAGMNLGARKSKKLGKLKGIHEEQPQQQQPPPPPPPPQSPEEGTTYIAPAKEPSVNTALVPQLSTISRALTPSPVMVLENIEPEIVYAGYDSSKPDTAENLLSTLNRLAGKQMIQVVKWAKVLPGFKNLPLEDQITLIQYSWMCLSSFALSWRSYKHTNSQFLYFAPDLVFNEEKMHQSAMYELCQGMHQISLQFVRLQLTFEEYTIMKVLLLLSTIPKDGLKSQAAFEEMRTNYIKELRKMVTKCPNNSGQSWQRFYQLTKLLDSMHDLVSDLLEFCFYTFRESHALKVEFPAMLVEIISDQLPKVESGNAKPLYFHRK
Outline: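 Full-length human MR expressed in Sf9 cells; lysate (20-25 μg protein) incubated with 0.5 nM [3H]-aldosterone and test compound in molybdate/Tris/phosphate/glycerol buffer pH 7.5, 16 h at 4 °C. Bound ligand measured by filtration and scintillation counting; IC50 converted to Ki via Cheng-Prusoff.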

Compound | Ki [nM]
COc1ccc(CN2C(=O)C(c3cc(C)c(O)c(C)c3)(c3cc(C)c(O)c(C)c3)c3ccccc32)cc1 [Example 1, 3,3-Bis-(4-hydroxy-3,5-dimethyl-phenyl)-1-(4-methoxy-benzyl)-1,3-dihydro-indol-2-one] | ≤ 500
Cc1ccc2c(c1)C(c1cc(C)c(O)c(C)c1)(c1cc(C)c(O)c(C)c1)C(=O)N2Cc1csc(-c2ccccc2)n1 [Example 92, 3,3-Bis-(4-hydroxy-3,5-dimethyl-phenyl)-5-methyl-1-(2-phenyl-thiazol-4-ylmethyl)-1,3-dihydro-indol-2-one] | ≤ 500
COc1ccc(N2C(=O)C(c3cc(C)c(O)c(C)c3)(c3cc(C)c(O)c(C)c3)c3ccccc32)cc1OC [Example 140, 1-(3,4-Dimethoxy-phenyl)-3,3-bis-(4-hydroxy-3,5-dimethyl-phenyl)-1,3-dihydro-indol-2-one] | ≤ 500
O=C1N(Cc2ccccc2)c2ccccc2C1(c1cc(Cl)c(O)c(Cl)c1)c1cc(Cl)c(O)c(Cl)c1 [Example 14, 1-Benzyl-3,3-bis-(3,5-dichloro-4-hydroxy-phenyl)-1,3-dihydro-indol-2-one] | ≤ 1000
Cc1cc(C2(c3cc(C)c(O)c(C)c3)C(=O)N(Cc3noc(C4CCC4)n3)c3ccccc32)cc(C)c1O [Example 86, 1-(5-Cyclobutyl-[1,2,4]oxadiazol-3-ylmethyl)-3,3-bis-(4-hydroxy-3,5-dimethyl-phenyl)-1,3-dihydro-indol-2-one] | ≤ 500
Cc1cc(C2(c3cc(C)c(O)c(C)c3)C(=O)N(Cc3ccc4ccccc4n3)c3ccccc32)cc(C)c1O [Example 97, 3,3-Bis-(4-hydroxy-3,5-dimethyl-phenyl)-1-quinolin-2-ylmethyl-1,3-dihydro-indol-2-one] | ≤ 500
COC(=O)c1ccc(CN2C(=O)C(c3cc(C)c(O)c(C)c3)(c3cc(C)c(O)c(C)c3)c3ccccc32)o1 [Example 108, 5-[3,3-Bis-(4-hydroxy-3,5-dimethyl-phenyl)-2-oxo-2,3-dihydro-indol-1-ylmethyl]-furan-2-carboxylic acid methyl ester] | ≤ 500
Cc1cc(C2(c3cc(C)c(O)c(C)c3)C(=O)N(c3ccncc3)c3ccccc32)cc(C)c1O [Example 136, 3,3-Bis-(4-hydroxy-3,5-dimethyl-phenyl)-1-pyridin-4-yl-1,3-dihydro-indol-2-one] | ≤ 500
Cc1cccc(N2C(=O)C(c3cc(C)c(O)c(C)c3)(c3cc(C)c(O)c(C)c3)c3ccccc32)c1 [Example 133, 3,3-Bis-(4-hydroxy-3,5-dimethyl-phenyl)-1-m-tolyl-1,3-dihydro-indol-2-one] | ≤ 500
Cc1ccc(N2C(=O)C(c3cc(C)c(O)c(C)c3)(c3cc(C)c(O)c(C)c3)c3ccccc32)cc1 [Example 125, 3,3-Bis-(4-hydroxy-3,5-dimethyl-phenyl)-1-p-tolyl-1,3-dihydro-indol-2-one] | ≤ 500
Cc1cc(C2(c3cc(C)c(O)c(C)c3)C(=O)N(c3ccccc3)c3ccccc32)cc(C)c1O [Example 126, 3,3-Bis-(4-hydroxy-3,5-dimethyl-phenyl)-1-phenyl-1,3-dihydro-indol-2-one] | ≤ 500
Cc1cc(C2(c3cc(C)c(O)c(C)c3)C(=O)N(CCC3CCCCC3)c3ccccc32)cc(C)c1O [Example 110, 1-(2-Cyclohexyl-ethyl)-3,3-bis-(4-hydroxy-3,5-dimethyl-phenyl)-1,3-dihydro-indol-2-one] | ≤ 500
Cc1cc(C2(c3cc(C)c(O)c(C)c3)C(=O)N(Cc3ccc(-c4csnn4)cc3)c3ccccc32)cc(C)c1O [Example 84, 3,3-Bis-(4-hydroxy-3,5-dimethyl-phenyl)-1-(4-[1,2,3]thiadiazol-4-yl-benzyl)-1,3-dihydro-indol-2-one] | ≤ 500
COC(=O)c1ccc(CN2C(=O)C(c3cc(C)c(O)c(C)c3)(c3cc(C)c(O)c(C)c3)c3ccccc32)cc1 [Example 3, 4-[3,3-Bis-(4-hydroxy-3,5-dimethyl-phenyl)-2-oxo-2,3-dihydro-indol-1-ylmethyl]-benzoic acid methyl ester] | ≤ 500
C#CCN1C(=O)C(c2cc(C)c(O)c(C)c2)(c2cc(C)c(O)c(C)c2)c2ccccc21 [Example 101, 3,3-Bis-(4-hydroxy-3,5-dimethyl-phenyl)-1-prop-2-ynyl-1,3-dihydro-indol-2-one] | ≤ 500
Cc1cc(C2(c3cc(C)c(O)c(C)c3)C(=O)N(C)c3ccccc32)cc(C)c1O [Example 4, 3,3-Bis-(4-hydroxy-3,5-dimethyl-phenyl)-1-methyl-1,3-dihydro-indol-2-one] | ≤ 1000
Cc1cc(C2(c3cc(C)c(O)c(C)c3)C(=O)N(c3cccc(C(C)C)c3)c3ccccc32)cc(C)c1O [Example 138, 3,3-Bis-(4-hydroxy-3,5-dimethyl-phenyl)-1-(3-isopropyl-phenyl)-1,3-dihydro-indol-2-one] | ≤ 500

Results, then the compound that gave them:

Ki [nM] | Compound
≤ 500 | Cc1ccc2c(c1)C(c1cc(C)c(O)c(C)c1)(c1cc(C)c(O)c(C)c1)C(=O)N2Cc1ccccc1C#N [Example 23, 2-[3,3-Bis-(4-hydroxy-3,5-dimethyl-phenyl)-5-methyl-2-oxo-2,3-dihydro-indol-1-ylmethyl]-benzonitrile]
≤ 500 | Cc1cc(C2(c3cc(C)c(O)c(C)c3)C(=O)N(Cc3ccccc3Cl)c3c(C)cccc32)cc(C)c1O [Example 24, 1-(2-Chloro-benzyl)-3,3-bis-(4-hydroxy-3,5-dimethyl-phenyl)-7-methyl-1,3-dihydro-indol-2-one]
≤ 500 | Cc1cc(C2(c3cc(C)c(O)c(C)c3)C(=O)N(Cc3ccccc3Br)c3ccccc32)cc(C)c1O [Example 63, 1-(2-Bromo-benzyl)-3,3-bis-(4-hydroxy-3,5-dimethyl-phenyl)-1,3-dihydro-indol-2-one]
≤ 500 | Cc1cc(C2(c3cc(C)c(O)c(C)c3)C(=O)N(Cc3cccc(Br)c3)c3ccccc32)cc(C)c1O [Example 64, 1-(3-Bromo-benzyl)-3,3-bis-(4-hydroxy-3,5-dimethyl-phenyl)-1,3-dihydro-indol-2-one]
≤ 500 | Cc1cc(C2(c3cc(C)c(O)c(C)c3)C(=O)N(Cc3c(Cl)cccc3Cl)c3ccccc32)cc(C)c1O [Example 113, 1-(2,6-Dichloro-benzyl)-3,3-bis-(4-hydroxy-3,5-dimethyl-phenyl)-1,3-dihydro-indol-2-one]
≤ 500 | Cc1cc(C2(c3cc(C)c(O)c(C)c3)C(=O)N(Cc3c(F)cccc3F)c3ccccc32)cc(C)c1O [Example 115, 1-(2,6-Difluoro-benzyl)-3,3-bis-(4-hydroxy-3,5-dimethyl-phenyl)-1,3-dihydro-indol-2-one]
≤ 500 | Cc1cc(C2(c3cc(C)c(O)c(C)c3)C(=O)N(Cc3ccc(Br)cc3)c3ccccc32)cc(C)c1O [Example 58, 1-(4-Bromo-benzyl)-3,3-bis-(4-hydroxy-3,5-dimethyl-phenyl)-1,3-dihydro-indol-2-one]
≤ 500 | Cc1cc(C2(c3cc(C)c(O)c(C)c3)C(=O)N(c3ccccc3Cl)c3ccccc32)cc(C)c1O [Example 129, 1-(2-Chloro-phenyl)-3,3-bis-(4-hydroxy-3,5-dimethyl-phenyl)-1,3-dihydro-indol-2-one]
≤ 500 | Cc1ccccc1CN1C(=O)C(c2cc(C)c(O)c(C)c2)(c2cc(C)c(O)c(C)c2)c2cc(Br)ccc21 [Example 20, 5-Bromo-3,3-bis-(4-hydroxy-3,5-dimethyl-phenyl)-1-(2-methyl-benzyl)-1,3-dihydro-indol-2-one]
≤ 500 | Cc1cc(C2(c3cc(C)c(O)c(C)c3)C(=O)N(Cc3ccccc3N)c3ccccc32)cc(C)c1O [Example 119, 1-(2-Amino-benzyl)-3,3-bis-(4-hydroxy-3,5-dimethyl-phenyl)-1,3-dihydro-indol-2-one]
≤ 500 | Cc1cc(C2(c3cc(C)c(O)c(C)c3)C(=O)N(Cc3ccccc3[N+](=O)[O-])c3ccccc32)cc(C)c1O [Example 65, 3,3-Bis-(4-hydroxy-3,5-dimethyl-phenyl)-1-(2-nitro-benzyl)-1,3-dihydro-indol-2-one]
≤ 500 | Cc1ccc2c(c1)C(c1cc(C)c(O)c(C)c1)(c1cc(C)c(O)c(C)c1)C(=O)N2Cc1ccccc1C [Example 21, 3,3-Bis-(4-hydroxy-3,5-dimethyl-phenyl)-5-methyl-1-(2-methyl-benzyl)-1,3-dihydro-indol-2-one]
≤ 500 | Cc1cc(C2(c3cc(C)c(O)c(C)c3)C(=O)N(Cc3ccccc3Cl)c3cccc(Cl)c32)cc(C)c1O [Example 26, 4-Chloro-1-(2-chloro-benzyl)-3,3-bis-(4-hydroxy-3,5-dimethyl-phenyl)-1,3-dihydro-indol-2-one]
